{"source": "patent US20200399250A1", "about": "“Pyrimidine Derivatives as Tropomyosin Receptor Kinase A (TRKA) Inhibitors” (BIOMED X GMBH, priority 2017, published 2020)", "key": {"[1]": {"molecular_target": "full-length human TrkA receptor (Homo sapiens, UniProt P04629)", "sequence (P04629 33-796)": "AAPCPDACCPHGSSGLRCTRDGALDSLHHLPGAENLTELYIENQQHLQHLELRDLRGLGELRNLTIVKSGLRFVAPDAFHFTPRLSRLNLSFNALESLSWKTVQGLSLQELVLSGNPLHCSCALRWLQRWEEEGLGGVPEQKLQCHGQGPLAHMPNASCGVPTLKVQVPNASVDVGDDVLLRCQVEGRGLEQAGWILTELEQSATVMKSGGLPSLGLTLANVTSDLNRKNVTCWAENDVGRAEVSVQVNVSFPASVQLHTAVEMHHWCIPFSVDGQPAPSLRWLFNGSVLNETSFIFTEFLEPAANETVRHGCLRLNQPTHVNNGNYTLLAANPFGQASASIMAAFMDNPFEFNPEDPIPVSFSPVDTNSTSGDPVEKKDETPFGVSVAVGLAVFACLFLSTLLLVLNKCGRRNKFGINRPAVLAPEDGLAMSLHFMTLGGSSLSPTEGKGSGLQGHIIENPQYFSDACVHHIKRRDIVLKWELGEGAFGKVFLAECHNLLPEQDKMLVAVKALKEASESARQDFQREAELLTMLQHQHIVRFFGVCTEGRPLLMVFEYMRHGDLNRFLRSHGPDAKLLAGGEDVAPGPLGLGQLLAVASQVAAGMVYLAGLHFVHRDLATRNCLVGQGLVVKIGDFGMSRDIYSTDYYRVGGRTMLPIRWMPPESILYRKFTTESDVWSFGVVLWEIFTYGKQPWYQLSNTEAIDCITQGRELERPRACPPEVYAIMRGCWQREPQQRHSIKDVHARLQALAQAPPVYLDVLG", "sequence (P01138 122-241 partner)": "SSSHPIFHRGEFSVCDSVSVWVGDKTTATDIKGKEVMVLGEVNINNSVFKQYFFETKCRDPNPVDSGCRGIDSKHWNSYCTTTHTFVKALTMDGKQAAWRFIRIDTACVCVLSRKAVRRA", "assay": "PathHunter cellular functional assay, antagonism of β-NGF", "format": "cell-based", "settings": "antagonism at EC80 (0.03 μg/ml) of β-NGF; read-out: Cellular assay [RC50]", "description": "The two compounds a1 and b7 were additionally tested in a functional assay using the PathHunter® technology (DiscoverX Corporation, Freemont, Calif., USA; https://www.discoverx.com/technologies-platforms/enzyme-fragment-complementation-technoloqy/cell-based-efc-assays/protein-protein-interactions/kinases-cell-based-(rtk-ctk)). In this assay, the full-length human TrkA receptor (i.e. including ligand-binding and kinase domains) is expressed as a C-terminal (intracellular) fusion with a small peptide epitope, called Prolink™ (PK). Furthermore, a SH2 domain containing protein (i.e. Shc1) is co-expressed with a larger Enzyme Acceptor (EA) fragment. Activation of the TrkA receptor by adding the agonist ligand (β-NGF), leads to the auto-phosphorylation of the kinase and subsequent binding of the Shc1-EA protein. That recruitment results in an active B-galactosidase enzyme that is detected by addition of a chemiluminescent substrate.\nCompounds were tested for antagonism using EC80 concentration (i.e. 0.03 μg/ml) of β-NGF. Data was normalized to the maximal and minimal response observed in the presence of EC80 agonist ligand (3-NGF) and vehicle (DMSO, final concentration 1%), respectively."}, "AurA [2]": {"molecular_target": "T1, AurA (Homo sapiens, UniProt O14965)", "T1 sequence (O14965 1-403)": "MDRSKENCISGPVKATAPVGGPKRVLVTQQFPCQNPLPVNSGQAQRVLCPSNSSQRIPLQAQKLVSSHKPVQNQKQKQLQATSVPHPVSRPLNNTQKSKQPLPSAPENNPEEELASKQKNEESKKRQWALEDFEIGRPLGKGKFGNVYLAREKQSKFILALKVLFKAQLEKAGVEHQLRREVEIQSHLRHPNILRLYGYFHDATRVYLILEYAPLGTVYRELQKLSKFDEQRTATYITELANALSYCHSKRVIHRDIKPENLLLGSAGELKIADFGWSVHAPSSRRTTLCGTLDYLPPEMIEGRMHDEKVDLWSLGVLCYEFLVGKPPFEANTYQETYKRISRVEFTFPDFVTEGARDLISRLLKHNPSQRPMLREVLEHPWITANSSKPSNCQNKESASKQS", "assay": "KINOMEscan primary screen against AurA", "format": "binding", "settings": "% of control", "experimental": "(§1) Compounds were initially tested in a primary screen against TrkA (at 10 and 100 nM) and AurA (at 100 nM and 1 μM) using the KINOMEscan technology from DiscoverX Corporation, Fremont, Calif., USA (https://www.discoverx.com/services/drug-discovery-development-services/kinase-profiling/kinomescan)."}, "panel of 97 kinases": {"tested_on": "panel of 97 kinases", "assay": "Selectivity profiling, scanEDGE kinase panel (KINOMEscan)", "format": "binding", "settings": "100 nM, cut-off <35% ctrl", "experimental": "Selectivity profiling was done over a panel of 97 kinases at 100 nM concentration (scanEDGE assay panel from Discover X, which also uses the KINOMEscan technology, whereat KIT(D816V) and KIT (V559D, T6701) were replaced by TrkB and TrkC). […] The employed profiling panel consisted of the following kinases: ABL1(T3151)-phosphorylated, ABL1-nonphosphorylated, ABL1-phosphorylated, ACVR1B, ADCK3, AKT1, AKT2, ALK, AURKA, AURKB, AXL, BMPR2, BRAF, BRAF (V600E), BTK, CDK11, CDK2, CDK3, CDK7, CDK9, CHEK1, CSF1R, CSNK1D, CSNK1G2, DCAMKL1, DYRK1B, EGFR, EGFR (L858R), EPHA2, ERBB2, ERBB4, ERK1, FAK, FGFR2, FGFR3, FLT3, GSK3B, IGF1R, IKK-alpha, IKK-beta, INSR, JAK2 (JH1domain-catalytic), JAK3 (JH1domain-catalytic), JNK1, JNK2, JNK3, KIT, LKB1, MAP3K4, MAPKAPK2, MARK3, MEK1, MEK2, MET, MKNK1, MKNK2, MLK1, p38-alpha, p38-beta, PAK1, PAK2, PAK4, PCTK1, PDGFRA, PDGFRB, PDPK1, PIK3C2B, PIK3CA, PIK3CG, PIM1, PIM2, PIM3, PKAC-alpha, PLK1, PLK3, PLK4, PRKCE, RAF1, RET, RIOK2, ROCK2, RSK2 (Kin. Dom. 1-N-terminal), SNARK, SRC, SRPK3, TGFBR1, TIE2, TRKA, TRKB, TRKC, TSSK1B, TYK2 (JH1domain-catalytic), ULK2, VEGFR2, YANK3, ZAP70"}, "TrkA": {"molecular_target": "TrkA (Homo sapiens, UniProt P04629)", "sequence (P04629 33-796)": "as the sequence (P04629 33-796) above", "assay": "KINOMEscan primary screen against TrkA", "format": "binding", "settings": "% of control", "experimental": "as §1\nResults were reported as % of control (% Ctrl.=(test compound signal−positive control signal)/(DMSO signal−positive control signal). KINOMEscan is an active site-directed competition binding assay that quantitatively measures the ability of a compound to compete with an immobilized, active-site directed ligand."}, "AurA [3]": {"molecular_target": "T1, AurA", "assay": "KdELECT Kd measurement (KINOMEscan), AurA", "format": "binding", "experimental": "Kd measurements were done via the KdELECT product service from DiscoverX Corporation (Freemont, Calif., USA) which also employs the KINOMEscan technology. Here, inhibitor binding constants (Kd values) are calculated from duplicate 11-point dose-response curves."}}, "note": "“And” between values parts separate entries of the source, which are not always exact repeats. Equal values may be shown once. “Also recorded” adds a separate entry of the source."}
{"molecule": "CN1CCN(c2cc(Nc3cc(-c4cccc(F)c4)[nH]n3)nc(Sc3ccccc3)n2)CC1", "note": "[a1, N-[5-(3-fluorophenyl)-1H-pyrazol-3-yl]-6-(4-methylpiperazin-1-yl)-2-(phenylsulfanyl)pyrimidin-4-amine]", "values": [{"measurement": "IC50", "setting": "[1]", "value": 26, "unit": "nM"}, {"measurement": "% Ctrl. AurA @100 nM", "setting": "AurA [2]; 100 nM compound", "value": 97, "unit": "% Ctrl."}, {"measurement": "% Ctrl. AurA @1 μM", "setting": "AurA [2]; 1 μM compound", "value": 92, "unit": "% Ctrl."}, {"measurement": "# Hits", "setting": "panel of 97 kinases; N = 92 non-mutant kinases", "value": 7}, {"measurement": "List of inhibited kinases", "setting": "panel of 97 kinases", "value": "TrkA, TrkB, TrkC, FLT3, KIT,; also recorded: PDGFRb, RET"}, {"measurement": "Selectivity Score", "setting": "panel of 97 kinases; inhibited kinases/tested kinases", "value": "0.08 and 0.076"}, {"measurement": "% Ctrl. TrkA @10 nM", "setting": "TrkA; 10 nM compound", "value": 11, "unit": "% Ctrl."}, {"measurement": "% Ctrl. TrkA @100 nM", "setting": "TrkA; 100 nM compound", "value": 1.9, "unit": "% Ctrl."}, {"measurement": "AurA [pKd]", "setting": "AurA [3]", "value": 5.3}, {"measurement": "Kd", "setting": "AurA [3]; duplicate 11-point dose-response curves", "value": 4500, "unit": "nM"}]}
